Assay results as given in article doi:10.1101/735001v1 (bioRxiv, 2019).
Where a SMILES comes first, the peptide text is derived from it. [ ]: non-standard residue; d: D form. Dmt = Cc1cc(O)cc(C)c1C[C@H](N)C(=O)O

Legend:
[1] = Acrylamide dynamic quenching; format: physicochemical
[2] = system: LUVs containing 20 mol% TOCL in POPC; experiment: Endogenous 2',6'-Dmt fluorescence measurement of SS-31 membrane binding; conditions: for increase in SS-31 emission intensity relative to emission in the absence of LUVs: 20% TOCL, mean (SD), n=6, SD; for n value ([L]eff:[P] at saturation) from time course titration inflection point: 20 mol% TOCL
[3] = system: LUVs containing 20 mol% MLCL in POPC; experiment: as above; conditions: 20% MLCL, mean (SD), n=6
[4] = system: LUVs containing 20 mol% POPG in POPC; experiment: as above; conditions: for increase in SS-31 emission intensity relative to emission in the absence of LUVs: 20% POPG, mean (SD), n=6, SD
[5] = system: LUVs with POPC only; experiment: as above; conditions: 100% POPC, high salt (100 mM KCl), 20 μM SS-31, [L]eff 100 µM, mean (SD), n=6
[6] = system: LUVs containing 10 mol% TOCL; experiment: SS-31 titration time course binding saturation analysis; conditions: low salt
[7] = system: LUVs containing 20% TOCL; experiment: Acrylamide dynamic quenching; format: binding; conditions: 20 μM SS-31 with LUVs 20% TOCL, n=3
[8] = system: LUVs containing 20% MLCL; experiment: Acrylamide dynamic quenching; format: binding; conditions: 20 μM SS-31 with LUVs 20% MLCL, n=3
[9] = system: LUVs containing 20% POPG; experiment: Acrylamide dynamic quenching; format: binding; conditions: 20 μM SS-31 with LUVs 20% POPG, n=3
[10] = aqueous buffer, comparison of SS-31 with L-Tyr (Fig. S3C), n=3

Structure (SMILES) | Stern-Volmer constant KSV (acrylamide quenching) [1, 10] | increase in SS-31 emission intensity relative to emission in the absence of LUVs ([2]; high salt (100 mM KCl)) | increase in SS-31 emission intensity relative to emission in the absence of LUVs ([2]; low salt, 20 μM SS-31, [L]eff 100 µM) | n value ([L]eff:[P] at saturation) from time course titration inflection point ([2]; high salt) | n value ([L]eff:[P] at saturation) from time course titration inflection point ([2]; low salt, SS-31 added in 2 µM increments, acrylamide in medium) | increase in SS-31 emission intensity relative to emission in the absence of LUVs ([3]; high salt (100 mM KCl)) | increase in SS-31 emission intensity relative to emission in the absence of LUVs ([3]; low salt) | increase in SS-31 emission intensity relative to emission in the absence of LUVs ([4]; high salt (100 mM KCl)) | increase in SS-31 emission intensity relative to emission in the absence of LUVs ([4]; low salt) | n value ([L]eff:[P] at saturation) from time course titration inflection point ([4]; 20 mol% POPG, low salt) | increase in SS-31 emission intensity relative to emission in the absence of LUVs [5] | n value ([L]eff:[P] at saturation) from time course titration inflection point [6] | Stern-Volmer constant KSV (acrylamide quenching) ([1]; 20 μM SS-31 in the absence of membranes, high salt (100 mM KCl)) | Stern-Volmer constant KSV (acrylamide quenching) ([1]; 20 μM SS-31 in the absence of membranes, low salt) | Stern-Volmer constant KSV (acrylamide quenching) ([7]; high salt) | Stern-Volmer constant KSV (acrylamide quenching) ([7]; low salt) | Stern-Volmer constant KSV (acrylamide quenching) ([8]; high salt) | Stern-Volmer constant KSV (acrylamide quenching) ([8]; low salt) | Stern-Volmer constant KSV (acrylamide quenching) ([9]; high salt) | Stern-Volmer constant KSV (acrylamide quenching) ([9]; low salt)
N[C@@H](Cc1ccc(O)cc1)C(=O)O [L-Tyr, reference compound] | 17.1 M⁻¹ |  |  |  |  |  |  |  |  |  |  |  |  |  |  |  |  |  |  | 
Cc1cc(O)cc(C)c1C[C@H](NC(=O)[C@H](N)CCCNC(=N)N)C(=O)N[C@@H](CCCCN)C(=O)N[C@@H](Cc1ccccc1)C(N)=O [SS-31, D-Arg-2’6’-dimethylTyr-Lys-Phe-NH2] (H-[dR][Dmt]KF-NH2) | 4.8 M⁻¹ | 1.72 (0.08) | 2.33 (0.07) | ~ 9 | ~ 5 | 1.79 (0.05) | 2.48 (0.05) | 1.45 (0.04) | 2.16 (0.04) | ~11 | 1.08 (0.04) | ~ 12 | 5.4 M⁻¹ | 5.7 M⁻¹ | 1.20 M⁻¹ | 0.15 M⁻¹ | 1.04 M⁻¹ | 0.02 M⁻¹ | 2.19 M⁻¹ | 0.21 M⁻¹
